We go through two compounds from patent publication US20150105252A1, “SUBSTITUTED PYRAZOLES AS HERBICIDES” (E I DU PONT DE NEMOURS AND COMPANY, priority 2013, published 2015).

In one experiment the test system is bromegrass, downy. In words: Test C postemergence. To be noted: for Bromegrass, Downy plant response rating: scale 0 to 100. In kind it is in vivo, Bromus tectorum. The text has this:
(§1) Seeds of plant species selected from blackgrass (Alopecurus myosuroides), ryegrass, Italian (Italian ryegrass, Lolium multiflorum), wheat (winter wheat, Triticum aestivum), galium (catchweed bedstraw, Galium aparine), corn (Zea mays), crabgrass, large (large crabgrass, Digitaria sanguinalis), foxtail, giant (giant foxtail, Setaria faberii), johnsongrass (Sorghum halepense), lambsquarters (Chenopodium album), morningglory (Ipomoea coccinea), nutsedge, yellow (yellow nutsedge, Cyperus esculentus), pigweed (redroot pigweed, Amaranthus retroflexus), ragweed (common ragweed, Ambrosia elation), soybean (Glycine max), barnyardgrass (Echinochloa crus-galli), oilseed rape (Brassica napus), waterhemp (common waterhemp, Amaranthus rudis), oat, wild (wild oat, Avena fatua), kochia (Kochia scoparia), Surinam grass (Brachiaria decumbens), foxtail, green (green foxtail, Setaria viridis), goosegrass (Eleusine indica), bromegrass, downy (downy bromegrass, Bromus tectorum), nightshade (eastern black nightshade, Solanum ptycanthum), cocklebur (common cocklebur, Xanthium strumarium), cupgrass, woolly (woolly cupgrass, Eriochloa villosa), bermudagrass (Cynodon dactylon), sunflower, (common oilseed sunflower, Helianthus annuus), Russian thistle (Salsola kali), and velvetleaf (Abutilon theophrasti) were planted into a blend of loam soil and sand and treated preemergence with test chemicals formulated in a non-phytotoxic solvent mixture which included a surfactant.
(§2) At the same time, plants selected from these crop and weed species and also chickweed (common chickweed, Stellaria media), canarygrass (littleseed canarygrass, Phalaris minor), and deadnettle (henbit deadnettle, Lamium amplexicaule), were planted in pots containing Redi-Earth® planting medium (Scotts Company, 14111 Scottslawn Road, Marysville, Ohio 43041) comprising spaghnum peat moss, vermiculite, wetting agent and starter nutrients and treated with postemergence applications of test chemicals formulated in the same manner. Plants ranged in height from 2 to 18 cm (1- to 4-leaf stage) for postemergence treatments. Treated plants and controls were maintained in a greenhouse for 13 to 15 days, after which time all species were compared to controls and visually evaluated. Plant response ratings, summarized in Table C, are based on a scale of 0 to 100 where 0 is no effect and 100 is complete control. A dash (-) response means no test result.

Another experiment concerns Surinam grass. In words: Test C preemergence. It counts as in vivo, Brachiaria decumbens. To be noted: for Plant response rating (scale of 0 to 100), Surinam Grass: Preemergence, 250 g ai/ha; for Surinam Grass plant response rating / Plant response rating, Surinam Grass: preemergence; for Plant response rating, Surinam Grass: 62 g ai/ha, scale 0 to 100, 0 = no effect, 100 = complete control.
Excerpt: as §1, §2

Another experiment relates to barley. Description: Test C postemergence. The settings on record: scale 0 to 100, 0 no effect, 100 complete control. It counts as in vivo, Hordeum vulgare.
Setting [1] is: postemergence, 250 g ai/ha, scale 0 to 100 (0 no effect, 100 complete control).
Setting [2] is: postemergence, 125 g ai/ha, scale 0 to 100, 0 no effect, 100 complete control.
[3] abbreviates: 31 g ai/ha, scale 0 to 100 (0 no effect, 100 complete control), 13 to 15 days.
Setting [4] is: 125 g ai/ha, scale 0 to 100, 0 is no effect, 100 is complete control.

Each structure is given as a SMILES string.

`CCONC(=O)c1cc(CC)n(Cc2cccc(OC(F)(F)F)c2)n1` [Compound 72]: the “Bromegrass, Downy plant response rating” value in the experiment on bromegrass, downy (Postemergence, 31 g ai/ha) is listed as 5; in the experiment with bromegrass, downy (postemergence, 62 g ai/ha) it was 5. Also, the “Plant response rating, Bromegrass, Downy” value is on record as 15 in the experiment on bromegrass, downy (setting [1]) and 15 in the experiment on bromegrass, downy (setting [2]). Besides, in the experiment with Surinam grass, the “Plant response rating (scale of 0 to 100), Surinam Grass” value is 75. In addition, the “Surinam Grass plant response rating” value in the experiment with Surinam grass (setting [3]) was 10; with Surinam grass (setting [4]) it was 65. Besides, the “Plant response rating, Surinam Grass” value in the experiment with Surinam grass (13 to 15 days) is listed as 15. In addition, the “Plant response rating, Barley” value in the experiment on barley (125 g ai/ha) worked out at 5.

On to `CCc1cc(C(=O)NOC(C)C)nn1Cc1cccc(OC(F)(F)F)c1` [Compound 70], for which the “Bromegrass, Downy plant response rating” value in the experiment on bromegrass, downy (Postemergence, 31 g ai/ha) turned out to be 0. For the same compound, the “Plant response rating, Bromegrass, Downy” value worked out at 5 with bromegrass, downy (setting [1]); 0 in the experiment with bromegrass, downy (postemergence, 62 g ai/ha, scale 0 to 100, 0 no effect, 100 complete control); 5 in the experiment on bromegrass, downy (setting [2]). In the experiment with Surinam grass, the “Plant response rating (scale of 0 to 100), Surinam Grass” value is reported as 85. Further, the “Surinam Grass plant response rating” value is recorded as 5 with Surinam grass (setting [3]) and 65 in the experiment with Surinam grass (setting [4]). Besides, the “Plant response rating, Surinam Grass” value in the experiment on Surinam grass (13 to 15 days) amounted to 25. Moreover, the “Plant response rating, Barley” value in the experiment on barley (62 g ai/ha) was 5; in the experiment with barley (125 g ai/ha), 10.
